Test results: paper PMC12686966, “Da‐Bu‐Yin‐Wan and Qian‐Zheng‐San Alleviate Parkinson's Disease by Activating the Keap1/Nrf2/HO‐1 Pathway to Positively Regulate Oxidative Stress” (CNS Neuroscience & Therapeutics, 2025)
Structures can show the parent of a compound that is named as a salt. Where two headings read alike, the source gives them in different places.

Columns and labels:
[1] = Pharmacokinetic study of 10 major BYQZF components in plasma (UPLC-MS/MS); conditions: for pharmacokinetics in MPTP + BYQZF group compared with BYQZF without MPTP group: p < 0.05; for MRT last: MRT(0-t)
Procedure: (§1) 6‐week‐old male C57BL/6J mice (20 ± 2 g; n = 6 per group) were orally administered the herbal decoction (BYQZF) at a dose of 5 g crude drug/kg. The administration volume was 10 mL/kg, and the concentration of the drug solution was 0.5 g/mL. Plasma samples were collected on day 14 after 14 consecutive days of drug administration. […] The supernatant samples were collected after centrifugation (5000 rpm, 10 min) and stored at −80°C immediately until analysis.
(§2) Each 100 μL plasma aliquot obtained at predetermined intervals was supplemented with 5 μL of internal standard solution (IS, 1 μg/mL) and 10 μL enzymatic hydrolysis cocktail (β‐glucuronidase/sulfatase mixture: 200 U/2 U enzymatic activity). The mixture underwent vortex mixing followed by 1‐h enzymatic digestion at physiological temperature (37°C). Subsequent protein precipitation was achieved through methanol addition (300 μL) with vigorous shaking. After phase separation by centrifugation (5000 rpm, 5 min), the organic supernatant was carefully decanted and subjected to nitrogen‐stream evaporation until completely dry. The residue was then reconstituted in 100 μL of mobile phase consisting of aqueous 0.1% FA‐ACN (v:v = 95:5) using ultrasonic‐assisted dissolution. Prior to UPLC‐MS/MS analysis, the final solution underwent high‐speed clarification centrifugation (13,000 rpm, 10 min) to remove particulate matter. The drug concentration‐time profiles were constructed, and pharmacokinetic parameters were analyzed using DAS 3.2.8 software.

[2] = mouse, in vivo, po
Procedure: as §1, §2

SH-SY5Y cells = assay: Annexin V-PE apoptosis detection (flow cytometry) in MPP+-treated SH-SY5Y cells; assay type: cell-based, human; conditions: Control siRNA; 1 mM MPP+ alone or followed by 4 μg/mL BYQZF 48 h; control cells 1.65%
Procedure: The experiment used the human neuroblastoma SH‐SY5Y cell line to construct a stable transfected cell line. Cells were grown in a 1:1 MEM/F12 medium blend with added 15% fetal bovine serum for nutritional support. To avoid bacterial contamination, 500 IU/mL of penicillin and 500 μg/mL of streptomycin were incorporated. Cells were cultured at 37°C with 5% CO2 to maintain a pH of 7.2–7.4. The cell passage ratio was 1:2 to 1:4, and medium was replaced every 48–72 h to maintain the cells in the logarithmic growth phase. Routine testing confirmed that the cells were free from mycoplasma, bacterial, and fungal contamination. For cell freezing, a cryopreservation solution consisting of 60% base medium, 30% FBS, and 10% DMSO was used, and cells were stored in liquid nitrogen for long‐term preservation. The human Nrf2 knockdown plasmid, crafted by GeneChem, was used to transfect SH‐SY5Y cells seeded at a concentration of 100,000 cells per milliliter, utilizing the optimal amount of Lipofectamine 3000 (Invitrogen) in accordance with the protocol. 48 h subsequent to transfection, cells were exposed to 1 mM MPP^+ in the culture environment, and subsequently treated with 4 μg/mL BYQZF for another 48 h.

Nrf2/HO-1 pathway = test system: Nrf2/HO-1 pathway; parameters: method as in PMID 27535021; conditions: hydrogen peroxide-induced oxidative stress ref 37; cited from earlier work
Nrf2/GPX4 pathway = test system: Nrf2/GPX4 pathway; parameters: method as in PMID 39631720, PMID 27632381; conditions: PD models ref 40, 41; cited from earlier work
[3] = parameters: method as in PMID 28163115; conditions: cited from earlier work
[4] = plasma, oral BYQZF 5 g crude drug/kg, group BYQZF (without MPTP), n=6
[5] = plasma, oral BYQZF 5 g crude drug/kg, group MPTP+BYQZF (PD model mice), n=6
[6] = male, C57BL/6J, mouse, plasma, po, 5 g/kg, AUC(0-t), plasma, oral BYQZF 5 g crude drug/kg, group BYQZF (without MPTP), n=6
[7] = male, C57BL/6J, mouse, plasma, po, 5 g/kg, AUC(0-t), plasma, oral BYQZF 5 g crude drug/kg, group MPTP+BYQZF (PD model mice), n=6
[8] = male, C57BL/6J, mouse, plasma, po, 5 g/kg, Cmax, plasma, oral BYQZF 5 g crude drug/kg, group BYQZF (without MPTP), n=6
[9] = male, C57BL/6J, mouse, plasma, po, 5 g/kg, Cmax, plasma, oral BYQZF 5 g crude drug/kg, group MPTP+BYQZF (PD model mice), n=6
[10] = male, C57BL/6J, mouse, plasma, po, 5 g/kg, plasma, oral BYQZF 5 g crude drug/kg, group BYQZF (without MPTP), n=6
[11] = male, C57BL/6J, mouse, plasma, po, 5 g/kg, plasma, oral BYQZF 5 g crude drug/kg, group MPTP+BYQZF (PD model mice), n=6

O=c1c(O[C@@H]2O[C@H](CO)[C@H](O)[C@H](O)[C@H]2O)c(-c2ccc(O)c(O)c2)oc2cc(O)cc(O)c12 [Hyperin]
pharmacokinetics in MPTP + BYQZF group compared with BYQZF without MPTP group ([1]; oral BYQZF 5 g crude drug/kg): significantly different
AUC(0-t) [1, 4]: 0.24678 ± 0.01186 ng·h/mL
Cmax [1, 4]: 0.03885 ± 0.01016 ng/mL
MRT(0-t) [1, 4]: 10.94 ± 0.64 h
AUC(0-t) [1, 5]: 0.17287 ± 0.02918 ng·h/mL
Cmax [1, 5]: 0.01989 ± 0.00355 ng/mL
MRT(0-t) [1, 5]: 12.22 ± 2.29 h

O=c1c(O)c(-c2ccccc2)oc2ccccc12 [3-Hydroxyflavone]
AUC(0-t) [1, 6]: 0.401 ± 0.0765 ng·h/mL
AUC(0-t) [1, 7]: 0.341 ± 0.0517 ng·h/mL
Cmax [1, 8]: 0.105 ± 0.0146 ng/mL
Cmax [1, 9]: 0.0291 ± 0.00788 ng/mL
MRT last [1, 10]: 5.17 ± 3.67 h
MRT last [1, 11]: 13 ± 1.72 h
pharmacokinetics in MPTP + BYQZF group compared with BYQZF without MPTP group ([1]; oral BYQZF 5 g crude drug/kg): significantly different

C[C@H]1[C@H]2[C@H](O[C@@H]3O[C@H](CO)[C@@H](O)[C@H](O)[C@H]3O)OC=C(C(=O)O)[C@H]2C[C@@H]1O [8-Epiloganic acid]
pharmacokinetics in MPTP + BYQZF group compared with BYQZF without MPTP group [2]: significantly different

O[C@H]1[C@H](O)[C@@H](O)[C@H](O)[C@@H](O)[C@H]1O [Inositol]
AUC(0-t) [1, 6]: 0.32 ± 0.0658 ng·h/mL
AUC(0-t) [1, 7]: 0.0615 ± 0.0127 ng·h/mL
Cmax [1, 8]: 0.0582 ± 0.0147 ng/mL
Cmax [1, 9]: 0.0239 ± 0.00194 ng/mL
MRT last [1, 10]: 2.81 ± 0.27 h
MRT last [1, 11]: 11.2 ± 1.23 h

C[n+]1ccc(-c2ccccc2)cc1 [MPP^+, 1‐Methyl‐4‐phenylpyridinium]
proportion of apoptotic cells (SH-SY5Y cells): 7.95%

COc1ccc2cc3[n+](cc2c1OC)CCc1cc2c(cc1-3)OCO2 [Berberine hydrochloride]
Nrf2/HO-1 pathway (Nrf2/HO-1 pathway): can activate

O=c1c2cc(O)c(O)cc2oc2cc(O)c([C@@H]3O[C@H](CO)[C@@H](O)[C@H](O)[C@H]3O)c(O)c12 [Mangiferol]
pharmacokinetics in MPTP + BYQZF group compared with BYQZF without MPTP group [2]: significantly different

C[C@@H]1O[C@@H](O[C@@H]2[C@@H](O)[C@H](OCCc3ccc(O)c(O)c3)O[C@H](CO)[C@H]2OC(=O)/C=C/c2ccc(O)c(O)c2)[C@H](O)[C@H](O)[C@H]1O [Acteoside]
Nrf2/GPX4 pathway (Nrf2/GPX4 pathway): activate

N[C@@H](CCC(=O)O)C(=O)O [L-Glutamic acid]
Cmax ([1]; male, C57BL/6J, mouse, in vivo, po, 5 g/kg): 0.0514 ± 0.00766 ng/mL
Cmax ([1]; male, C57BL/6J, mouse, plasma, po, 5 g/kg): 0.0146 ± 0.00047 ng/mL
AUC(0-t) [1, 6]: 0.102 ± 0.0119 ng·h/mL
AUC(0-t) [1, 7]: 0.0832 ± 0.0112 ng·h/mL
MRT last [1, 10]: 4.47 ± 1.61 h
MRT last [1, 11]: 4.55 ± 1.19 h

N[C@@H](CC(=O)N[C@@H](CC(=O)O)C(=O)O)C(=O)O [L-beta-aspartyl-L-aspartic acid]
pharmacokinetics in MPTP + BYQZF group compared with BYQZF without MPTP group ([1]; oral BYQZF 5 g crude drug/kg): significantly different
AUC(0-t) [1, 4]: 0.01864 ± 0.00096 ng·h/mL
Cmax [1, 4]: 0.02274 ± 0.00024 ng/mL
MRT(0-t) [1, 4]: 2.02 ± 2.07 h
AUC(0-t) [1, 5]: 0.01424 ± 0.0026 ng·h/mL
Cmax [1, 5]: 0.00887 ± 0.00191 ng/mL
MRT(0-t) [1, 5]: 2.13 ± 1.32 h

O=c1cc[nH]c(=O)[nH]1 [Uracil]
AUC(0-t) [1, 6]: 0.413 ± 0.0753 ng·h/mL
AUC(0-t) [1, 7]: 0.166 ± 0.0638 ng·h/mL
Cmax [1, 8]: 0.23 ± 0.0219 ng/mL
Cmax [1, 9]: 0.0395 ± 0.00762 ng/mL
MRT last [1, 10]: 2.01 ± 1.68 h
MRT last [1, 11]: 2.89 ± 0.17 h

C[C@@H]1O[C@@H](O[C@@H]2[C@@H](O)[C@H](OCCc3ccc(O)c(O)c3)O[C@H](COC(=O)/C=C/c3ccc(O)c(O)c3)[C@H]2O)[C@H](O)[C@H](O)[C@H]1O [Isoacteoside]
AUC(0-t) [1, 6]: 2.8 ± 0.138 ng·h/mL
AUC(0-t) [1, 7]: 2.18 ± 0.31 ng·h/mL
Cmax [1, 8]: 0.248 ± 0.0148 ng/mL
Cmax [1, 9]: 0.185 ± 0.00514 ng/mL
MRT last [1, 10]: 7.9 ± 0.47 h
MRT last [1, 11]: 8.87 ± 0.83 h
pharmacokinetics in MPTP + BYQZF group compared with BYQZF without MPTP group ([1]; oral BYQZF 5 g crude drug/kg): significantly different

OCC1=C[C@@H](O)[C@]2(O[C@@H]3O[C@H](CO)[C@@H](O)[C@H](O)[C@H]3O[C@@H]3O[C@H](CO)[C@@H](O)[C@H](O)[C@H]3O)C=CO[C@@H](O[C@@H]3O[C@H](CO)[C@@H](O)[C@H](O)[C@H]3O)[C@H]12 [Rehmannioside D]
spontaneous oxidation of endogenous dopamine [3]: inhibit

Manninotriose
pharmacokinetics in MPTP + BYQZF group compared with BYQZF without MPTP group [2]: significantly different
